Experimental data from patent publication US20250197424A1, “QUINOLINE COMPOUND AND USE THEREOF” (SHANGHAI PHARMACEUTICALS HOLDING CO., LTD., priority 2022, published 2025).
Structures can show the parent of a compound that is named as a salt.

Biological target: GTP-KRAS-G12D:SOS1 (Homo sapiens (Human), UniProt P01116, G12D)
Assay: GTP-KRAS-G12D:SOS1 binding inhibition
Experimental: The IC50 of the compounds was fitted using a nonlinear regression equation with GraphPad Prism 8. The results are presented in Table 2: • Negative control: DMSO • Positive control: 100 μM BI-2852
The following nonlinear fitting formula was used to obtain the IC50 (half-maximal inhibitory concentration) of the compounds:
[formula] • X: logarithm of the compound concentration • Y: 665/615 Ratio

GTP-KRAS-G12D:SOS1, sequence (P01116-2 other isoform, or with tags, fused parts or gaps G12D): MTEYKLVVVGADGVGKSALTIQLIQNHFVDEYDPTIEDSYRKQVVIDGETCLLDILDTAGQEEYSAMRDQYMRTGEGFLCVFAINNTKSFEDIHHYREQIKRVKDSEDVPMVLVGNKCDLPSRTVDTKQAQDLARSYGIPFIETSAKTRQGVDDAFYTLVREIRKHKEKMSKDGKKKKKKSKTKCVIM

Compound | IC50 [nM]
CCc1cccc2cc(O)cc(-c3c(F)c4c5c(nc(OC[C@]67C[C@@H](F)CN6C[C@@H](CN6CCN(C)CC6)C7)nc5c3F)N3CC5CCC(N5)C3CO4)c12 (single isomer, unassigned) [Compound 29b, 4-((2R or 2S, 5aS,6S,9R)-1,3-difluoro-13-(((2R,6R,7aS)-2-fluoro-6-((4-methylpiperazin-1-yl)methyl)tetrahydro-1H-pyrrolizin-7a(5H)-yl)methoxy)-5a,6,7,9,10-hexahydro-5H-6,9-epiminoazepino[2′,1′:3,4][1,4]oxazepino[5,6,7-de]quinazolin-2-yl)-5-ethylnaphthalen-2-ol tetrahydrochloride] | 15.7
CCc1cccc2cc(O)cc(-c3c(F)c4c5c(nc(OC[C@@]67C[C@H](O)CN6C[C@H](F)C7)nc5c3F)N3CC5CCC(N5)C3CO4)c12 (single isomer, unassigned) [Compound 15b, (2S,6R,7aS)-7a-((((2S or 2R,5aS,6S,9R)-2-(8-ethyl-3-hydroxynaphthalen-1-yl)-1,3-difluoro-5a,6,7,8,9,10-hexahydro-5H-6,9-epiminoazepino[2′,1′:3,4][1,4]oxazepino[5,6,7-de]quinazolin-13-yl)oxy)methyl)-6-fluorohexahydro-1H-pyrrolizin-2-ol dihydrochloride] | 6.54
Nc1nc2c(-c3c(F)c4c5c(nc(OC[C@@]67CCCN6C[C@H](F)C7)nc5c3F)N3CC5CCC(N5)C3CO4)ccc(F)c2s1 (stereo partly drawn) [Compound 19, 4-((5aS,6S,9R)-1,3-Difluoro-13-(((2R,7aS)-2-fluorotetrahydro-1H-pyrrolizin-7a(5H)-yl)methoxy)-5a,6,7,8,9,10-hexahydro-5H-6,9-epiminoazepino[2′,1′:3,4][1,4]oxazepino[5,6,7-de]quinazolin-2-yl)-7-fluorobenzo[d]thiazol-2-amine dihydrochloride] | 12.7
Cc1cc(N)nc(-c2c(F)c3c4c(nc(OC[C@@]56CCCN5C[C@H](F)C6)nc4c2F)N2CC4CCC(N4)C2CO3)c1C(F)(F)F (single isomer, unassigned) [10a′, (S or R)-6-((5aS,6S,9R)-1,3-Difluoro-13-(((2R,7aS)-2-fluorotetrahydro-1H-pyrrolizin-7a(5H)-yl)methoxy)-5a,6,7,8,9,10-hexahydro-5H-6,9-epiminoazepino[2′,1′:3,4][1,4]oxazepino[5,6,7-de]quinazolin-2-yl)-4-methyl-5-(trifluoromethyl)pyridin-2-amine] | 700
CCc1cccc2cc(O)cc(-c3c(F)c4c5c(nc(OC[C@]67C[C@@H](F)CN6C[C@H](CO)C7)nc5c3F)N3CC5CCC(N5)C3CO4)c12 (single isomer, unassigned) [Compound 21b, 4-((2S or 2R,5aS,6S,9R)-1,3-difluoro-13-(((2R,6R,7aS)-2-fluoro-6-(hydroxymethyl)tetrahydro-1H-pyrrolizin-7a(5H)-yl)methoxy)-5a,6,7,8,9,10-hexahydro-5H-6,9-epiminoazepino[2′,1′:3,4][1,4]oxazepino[5,6,7-de]quinazolin-2-yl)-5-ethylnaphthalen-2-ol dihydrochloride] | 7.21
Oc1cc(-c2c(F)c3c4c(nc(OC[C@@]56CCCN5C[C@H](F)C6)nc4c2F)N2CC4CCC(N4)C2CO3)c2c3c(ccc2c1)CCC3 (single isomer, unassigned) [Compound 14b, 9-((2S or 2R,5aS,6S,9R)-1,3-difluoro-13-(((2R,7aS)-2-fluorotetrahydro-1H-pyrrolizin-7a(5H)-yl)methoxy)-5a,6,7,8,9,10-hexahydro-5H-6,9-epiminoazepino[2′,1′:3,4][1,4]oxazepino[5,6,7-de]quinazolin-2-yl)-2,3-dihydro-1H-cyclopenta[a]naphthalen-7-ol dihydrochloride] | 15.3
Oc1cc(Cl)c2c(c1)C1(CC2)CCc2c(nc(OC[C@@]34CCCN3C[C@H](F)C4)nc2N2CC3CCC(C2)N3)C1F (single isomer, unassigned) [Compound 8c, (1S or 1R,8′R or 8'S)-4′-((1R,5S)-3,8-diazabicyclo[3.2.1]octan-3-yl)-4-chloro-8′-fluoro-2′-(((2R,7aS)-2-fluorotetrahydro-1H-pyrrolizin-7a(5H)-yl)methoxy)-2,3,5′,8′-tetrahydro-6′H-spiro[indene-1,7′-quinazolin]-6-ol dihydrochloride] | 4010
Nc1cc2ccccc2c(-c2c(F)c3c4c(nc(OC[C@@]56CCCN5C[C@H](F)C6)nc4c2F)N2CC4CCC(N4)C2CO3)n1 (stereo partly drawn) [Compound 22, 1-((5aS,6S,9R)-1,3-Difluoro-13-(((2R,7aS)-2-fluorotetrahydro-1H-pyrrolizin-7a(5H)-yl)methoxy)-5a,6,7,8,9,10-hexahydro-5H-6,9-epiminoazepino[2′,1′:3,4][1,4]oxazepino[5,6,7-de]quinazolin-2-yl) isoquinolin-3-amine] | 13.4

Second part, the compound after the results:

IC50 [nM] | Compound
5300 | CCc1cccc2cc(O)cc(-c3c(F)c4c5c(nc(OC[C@]67C[C@@H](F)CN6C[C@@H](CN6CCOCC6)C7)nc5c3F)N3CC5CCC(N5)C3CO4)c12 (single isomer, unassigned) [Compound 28a, 4-((2R or 2S, 5aS,6S,9R)-1,3-Difluoro-13-(((2R,6R,7aS)-2-fluoro-6-(morpholinomethyl)tetrahydro-1H-pyrrolizin-7a(5H)-yl)methoxy)-5a,6,7,8,9,10-hexahydro-5H-6,9-epiminoazepino[2′,1′:3,4][1,4]oxazepino[5,6,7-de]quinazolin-2-yl)-5-ethylnaphthalen-2-ol trihydrochloride]
15.2 | CCc1cccc2cc(O)cc(-c3c(F)c4c5c(nc(OC[C@]67C[C@@H](F)CN6C[C@@H](CN6CCOCC6)C7)nc5c3F)N3CC5CCC(N5)C3CO4)c12 (single isomer, unassigned) [Compound 28b, 4-((2S or 2R,5aS,6S,9R)-1,3-difluoro-13-(((2R,6R,7aS)-2-fluoro-6-(morpholinomethyl)tetrahydro-1H-pyrrolizin-7a(5H)-yl)methoxy)-5a,6,7,8,9,10-hexahydro-5H-6,9-epiminoazepino[2′,1′:3,4][1,4]oxazepino[5,6,7-de]quinazolin-2-yl)-5-ethylnaphthalen-2-ol trihydrochloride]
15.7 | Cc1cc(N)nc(-c2c(F)c3c4c(nc(OC[C@@]56CCCN5C[C@H](F)C6)nc4c2F)N2C[C@@H]4CCC(N4)[C@H]2CCO3)c1C(F)(F)F (single isomer, unassigned) [Compound 26b, 6-((2R or 2S, 6aS,7S,10R)-1,3-difluoro-14-(((2R,7aS)-2-fluorotetrahydro-1H-pyrrolizin-7a(5H)-yl)methoxy)-5,6,6a,7,8,9,10,11-octahydro-7,10-epiminoazepino[1′,2′: 5,6][1,5]oxazocino[4,3,2-de]quinazolin-2-yl)-4-methyl-5-(trifluoromethyl)pyridin-2-amine]
5.75 | CCc1cccc2cc(O)cc(-c3c(F)c4c5c(nc(OC[C@]67C[C@@H](F)CN6C[C@@H](CO)C7)nc5c3F)N3CC5CCC(N5)C3CO4)c12 (single isomer, unassigned) [Compound 23b, 4-((2S or 2R,5aS,6S,9R)-1,3-difluoro-13-(((2R,6S,7aS)-2-fluoro-6-(hydroxymethyl)tetrahydro-1H-pyrrolizin-7a(5H)-yl)methoxy)-5a,6,7,8,9,10-hexahydro-5H-6,9-epiminoazepino[2′,1′:3,4][1,4]oxazepino[5,6,7-de]quinazolin-2-yl)-5-ethylnaphthalen-2-ol dihydrochloride]
